Assay: Solubility test in methyl ethyl ketone
Type: physicochemical
Conditions: 1.5 g sensitiser in 100 g methyl ethyl ketone, stirred at room temperature (20° C.) for a maximum of 24 hours
Description: Solubility Test in Methyl Ethyl Ketone
1.5 g of the sensitiser is dissolved in 100g of methyl ethyl ketone and allowed to stir at room temperature (20° C.) for a maximum of 24 hours. If the sensitiser is completely dissolved in the methyl ethyl ketone, the sensitiser passes the solubility test and is considered as a preferred sensitiser according to the present invention.

Row | SMILES | Solubility test MEK (15 g/kg)
1 | CCCCC(CC)COc1c(OC)cc(C=Cc2ccc(C=Cc3cc(OC)c(OCC(CC)CCCC)c(OC)c3)cc2)cc1OC (centres unmarked) [(F), 1,4-distyryl-(3,5-trimethoxy, 4-(1-(2-ethyl)hexyl)oxy)benzene] | OK (If the sensitiser is completely dissolved in the methyl ethyl ketone, the sensitiser passes the solubility test)
2 | CCC(C)Oc1c(OC)cc(C=Cc2ccc(C=Cc3cc(OC)c(OC(C)CC)c(OC)c3)cc2)cc1OC (centres unmarked) [(D), 1,4-distyryl-(3,5-trimethoxy, 4-(2-butyl)oxy)benzene] | OK (If the sensitiser is completely dissolved in the methyl ethyl ketone, the sensitiser passes the solubility test)
